Data taken from patent US20160235677A1, “METHOD OF CONVERTING A CRYSTALLINE COMPOUND TO AN AMORPHOUS COMPOUND, METHOD OF INCREASING THE SOLUBILITY OF A CRYSTALLINE COMPOUND IN A BIORELEVANT FLUID, AND NANOPARTICLES THAT ACHIEVE SUPERSATURATION” (Nanocopoeia, LLC., priority 2014, published 2016).
Converted amounts (≈) assume the structure as drawn. Like-named read-outs stand apart in the source and are kept apart here.

Key:
[1] = Caco-2 Monolayer Test Method; assay type: in vitro ADME; settings: human; Caco-2 monolayers, apical to basolateral, powder equivalent to 200 μg GF in 1 mL buffer pH 7.4, 2 h
Method: Caco-2 monolayers are prepared in Millipore 96-cell Caco-2 plates and are used after a 3-week differentiation period. The monolayers separate the apical, or donor well, from the basolateral, or recipient well. The buffer used for the apical side is 1.98 g/L glucose in 10 mM HEPES, Hank's Balanced Salt Solution (HBSS) lx, with calcium, magnesium, without phenol red (HyClone, Logan, Utah) pH 7.4. The impermeable dye Lucifer yellow (in an amount of 100 μM) is added to test monolayer integrity. The basolateral side buffer is buffer, pH 7.4, without dye. […] The amount of test powder is selected to assure that if the powder was completely dissolved, the amount is sufficient to achieve ˜12 to 13 times the saturation concentration of the compound of interest previously measured in HBSS (15 μg/mL), in other words, a supersaturated solution. […] Where the compound of interest is not a substrate for p-glycoprotein (pGP), B→A efflux is not measured.
Buffer test samples are added to apical wells at 1 h after preparation and buffer alone is added to the basolateral side. […] The plates are assumed to be intact if there is no increase in fluorescence from leaking Lucifer yellow dye from the apical side. Individual cell monolayers are assumed intact if there is no increase in fluorescence in aliquots taken from the basolateral wells. […]

[2] = Dissolution in Biorelevant Medium Using Non-Sink Condition (griseofulvin powders in FaSSIF); assay type: physicochemical; settings: GF dissolution in FaSSIF, 5 hour experiment
Method: A modified low-volume shaker flask method is used to assess the dissolution behavior of samples under supersaturated conditions. A 75 mL aliquot of FaSSIF, adjusted to pH 6.5, is added to each of six 150 mL Erlenmeyer flasks, which are then stoppered. The liquid is then heated to and maintained at 37° C.±1° C. using a benchtop incubated orbital shaker with a multi position stir plate (Forma Scientific 4520, Thermo Fisher Scientific, Waltham, Mass.). A 38 mm×9 mm stir bar is placed in each flask and stirring is started at 150 rotations per minute (RPM). A control sample, containing the compound of interest, and experimental samples are added to separate flasks in amounts sufficient to provide an amount of the compound of interest equivalent to the control sample. At each of 5 min, 15 min, 20 min, 30 min, 45 min, 60 min, 120 min, 240 min, and 300 min, 3 mL of dissolution media is removed from each flask, and immediately filtered through a 13 mm, 0.2 μm nylon filter with glass prefilter (EMD Millipore, Billerica, Mass.) after first discarding the first 2 mL of the sample. […]
The HPLC analysis is performed using an Ace C18, 2.1×150 mm, 3 μm chromatographic column maintained at 30° C. […] Quantification is performed based on linear calibration curve ranging from 10 ng/mL to 1000 ng/mL using peak response ratio.
For the Dissolution in Biorelevant Medium Using Non-Sink Condition analysis, a 24 mg sample of Control 1, i.e., griseofulvin powder, and an amount of Examples 1-7 sufficient to provide an amount of griseofulvin equivalent to the amount of Control 1, i.e., 24 mg, was added to each flask. Quantification was performed based on linear calibration curve ranging from 10 to 1000 ng/mL using peak response ratio. […]
Dry powder produced as describe above in Examples 8-11 was evaluated in the biorelevant medium FaSSIF, comparing ENS-processed powders with physical mixtures at similar ratios of GF:SP. […]

[3] = Equilibrium / saturation solubility in test media; assay type: physicochemical; settings: GF, previously measured
[4] = X-Ray Powder Diffraction (XRD) crystallinity / physical state; assay type: physicochemical; settings: griseofulvin materials, result in words
Method: X-ray powder diffraction is performed at room temperature using a Bruker D8 Discover using a Cu Kα radiation, point source filtered with a graphite monochromator and a Bruker Hi-Star two-dimensional x-ray detector (Bruker, Karlsruhe, Germany). Powder samples are pressed onto a sample holder made of single-crystal quartz cut off-axis. The reflected intensity is collected at 0.04° resolution from 2Θ=2° to 62° with an acquisition time of 20 minutes. Data analysis is performed using the JADE 8.0 software package (Materials Data Inc., Livermore, Calif.) with whole pattern fitting. The test method has a detection limit of 2% crystallinity. […]

[5] = non-sink, 24 mg GF equivalent in 75 mL, 37° C.

Papp A→B at 2 h, 200 μg/mL [1]: 28 ± 2.5 ×10⁻⁶ cm/s | Cmax [2, 5]: 18300 ng/mL | Tmax [2, 5]: 30 min | AUC ([2]; area under the concentration-time curve): 5,202 | solubility thermodynamic ([3]; HBSS, saline or isotonic, read-out: saturation concentration in HBSS): 15 µg/mL (≈ 42.5 µM) | solubility thermodynamic ([3]; water, thermodynamic from solid, read-out: equilibrium solubility in water): 6 to 10 µg/mL (≈ 17 to 28.3 µM) | physical state by XRD [4]: completely crystalline material
Compound: COC1=CC(=O)C[C@@H](C)[C@]12Oc1c(Cl)c(OC)cc(OC)c1C2=O [Control 1, (+)-griseofulvin]
